Measurements as given in ChEMBL document CHEMBL1153476, “Novel mannosyl derivatives of peptidoglycan monomer: Synthesis and biological evaluation of immunomodulatory properties” (2009).

Test system: Mus musculus
Test: Immunostimulatory activity against ovalbumin-stimulated immune response in mouse serum assessed as ratio of IgG1 to IgG2a at 200 ug, sc measured after 7 days by ELISA
Type: functional

Compound: CC(=O)N[C@@H]1[C@@H](O[C@H](C)C(=O)N[C@@H](C)C(=O)N[C@H](CCC(=O)N[C@H](CCC[C@H](N)C(N)=O)C(=O)N[C@H](C)C(=O)N[C@H](C)C(=O)O)C(N)=O)[C@H](O[C@@H]2O[C@H](CO)[C@@H](O)[C@H](O)[C@H]2NC(C)=O)[C@@H](CO)O[C@H]1O
- Ratio: 2.6
